Data reported in PubChem BioAssay (NCI).
Where “and” joins values, the source holds several entries; their conditions need not be identical. Equal entries are not always repeated.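 Where inhibition never reached the appropriate level, the endpoint shown equals the highest concentration tested. Otherwise, values were interpolated linearly from a five-concentration, 48-hour dose response in 96-well plates. Abbreviation: GI50, concentration required for 50% inhibition of growth. The concentration for full growth arrest is given as TGI.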

Key:
Test in all cases: growth of human tumour cells (NCI), 48 h
786-0 renal = system: 786-0 renal
A498 renal = system: A498 renal
A549 NSCLC = system: A549 NSCLC
ACHN renal = system: ACHN renal
BT-549 breast = system: BT-549 breast
CAKI-1 renal = system: CAKI-1 renal
CCRF-CEM leukemia = system: CCRF-CEM leukemia
COLO 205 colon = system: COLO 205 colon
DU-145 prostate = system: DU-145 prostate
EKVX NSCLC = system: EKVX NSCLC
HCC-2998 colon = system: HCC-2998 colon
HCT-116 colon = system: HCT-116 colon
HCT-15 colon = system: HCT-15 colon
HL-60(TB) leukemia = system: HL-60(TB) leukemia
HOP-62 NSCLC = system: HOP-62 NSCLC
HOP-92 NSCLC = system: HOP-92 NSCLC
HS 578T breast = system: HS 578T breast
HT29 colon = system: HT29 colon
IGROV1 ovarian = system: IGROV1 ovarian
K-562 leukemia = system: K-562 leukemia
KM12 colon = system: KM12 colon
LOX IMVI melanoma = system: LOX IMVI melanoma
M14 melanoma = system: M14 melanoma
MALME-3M melanoma = system: MALME-3M melanoma
MCF7 breast = system: MCF7 breast
MDA-MB-231 breast = system: MDA-MB-231 breast
MDA-MB-435 = system: MDA-MB-435
MDA-N = system: MDA-N
MOLT-4 leukemia = system: MOLT-4 leukemia
NCI-H226 lung = system: NCI-H226 lung
NCI-H23 lung = system: NCI-H23 lung
NCI-H460 lung = system: NCI-H460 lung
NCI-H522 lung = system: NCI-H522 lung
NCI/ADR-RES ovarian = system: NCI/ADR-RES ovarian
OVCAR-3 ovarian = system: OVCAR-3 ovarian
OVCAR-4 ovarian = system: OVCAR-4 ovarian
OVCAR-5 ovarian = system: OVCAR-5 ovarian
OVCAR-8 ovarian = system: OVCAR-8 ovarian
PC-3 prostate = system: PC-3 prostate
RPMI-8226 leukemia = system: RPMI-8226 leukemia
RXF 393 renal = system: RXF 393 renal
SF-268 CNS = system: SF-268 CNS
SF-295 CNS = system: SF-295 CNS
SF-539 CNS = system: SF-539 CNS
SK-MEL-2 melanoma = system: SK-MEL-2 melanoma
SK-MEL-28 melanoma = system: SK-MEL-28 melanoma
SK-MEL-5 melanoma = system: SK-MEL-5 melanoma
SK-OV-3 ovarian = system: SK-OV-3 ovarian
SN12C renal = system: SN12C renal
SNB-19 CNS = system: SNB-19 CNS
SNB-75 CNS = system: SNB-75 CNS
SR leukemia = system: SR leukemia
SW-620 colon = system: SW-620 colon
T-47D breast = system: T-47D breast
TK-10 renal = system: TK-10 renal
U251 CNS = system: U251 CNS
UACC-257 melanoma = system: UACC-257 melanoma
UACC-62 melanoma = system: UACC-62 melanoma
UO-31 renal = system: UO-31 renal

## O=C(NNC(=O)c1ccccc1S)c1ccccc1S
786-0 renal
  GI50: 13.4 µM
  TGI: 25 µM and > 100 µM
A498 renal
  TGI: > 100 µM
A549 NSCLC
  GI50: 28.7 µM
  TGI: 25 µM and > 100 µM
ACHN renal
  TGI: 25 µM and > 100 µM
BT-549 breast
  GI50: 16.7 µM
  TGI: 25 µM and > 100 µM
CAKI-1 renal
  GI50: 5.51 µM
  TGI: 25 µM and > 100 µM
CCRF-CEM leukemia
  GI50: 1.85 µM
  TGI: 25 µM and 12.2 µM
COLO 205 colon
  GI50: 28.2 µM
  TGI: 25 µM and > 100 µM
DU-145 prostate
  TGI: 25 µM and > 100 µM
EKVX NSCLC
  GI50: 52.2 µM
  TGI: 25 µM and > 100 µM
HCC-2998 colon
  TGI: > 100 µM
HCT-116 colon
  GI50: 8.17 µM
  TGI: 25 µM and 82.1 µM
HCT-15 colon
  GI50: 7.97 µM
  TGI: 25 µM and > 100 µM
HL-60(TB) leukemia
  GI50: 3.12 µM
  TGI: 24.6 µM and 17.6 µM
HOP-62 NSCLC
  GI50: 21 µM
  TGI: 25 µM and 68.3 µM
HOP-92 NSCLC
  GI50: > 100 µM
  TGI: > 100 µM
HS 578T breast
  TGI: > 100 µM
HT29 colon
  GI50: 31.3 µM
  TGI: 25 µM and > 100 µM
IGROV1 ovarian
  GI50: 16.9 µM
  TGI: 22.5 µM and > 100 µM
K-562 leukemia
  GI50: 5.4 µM
  TGI: 25 µM and > 100 µM
KM12 colon
  GI50: 37.3 µM
  TGI: 25 µM and > 100 µM
LOX IMVI melanoma
  TGI: 25 µM and > 100 µM
M14 melanoma
  GI50: 23.3 µM
  TGI: 25 µM and > 100 µM
MALME-3M melanoma
  GI50: 54.3 µM
  TGI: 25 µM and > 100 µM
MCF7 breast
  TGI: > 100 µM
MDA-MB-231 breast
  TGI: > 100 µM
MDA-MB-435
  GI50: 33.2 µM
  TGI: 25 µM and > 100 µM
MDA-N
  GI50: 22.3 µM
  TGI: 25 µM and > 100 µM
MOLT-4 leukemia
  GI50: 3.58 µM
  TGI: 25 µM and > 100 µM
NCI-H226 lung
  GI50: 25.2 µM
  TGI: 25 µM and > 100 µM
NCI-H23 lung
  GI50: 20.8 µM
  TGI: 25 µM and > 100 µM
NCI-H460 lung
  GI50: 0.123 µM
  TGI: 25 µM and > 100 µM
NCI-H522 lung
  GI50: 5.34 µM
NCI/ADR-RES ovarian
  GI50: 25.9 µM
  TGI: 25 µM and > 100 µM
OVCAR-3 ovarian
  GI50: 16.1 µM
  TGI: 25 µM and 65.4 µM
OVCAR-4 ovarian
  GI50: 28 µM
  TGI: 25 µM and > 100 µM
OVCAR-5 ovarian
  GI50: 68.2 µM
  TGI: 25 µM and > 100 µM
OVCAR-8 ovarian
  TGI: 25 µM and > 100 µM
PC-3 prostate
  TGI: > 100 µM
RPMI-8226 leukemia
  GI50: 9.24 µM
  TGI: 25 µM and > 100 µM
RXF 393 renal
  GI50: 8.74 µM
  TGI: 25 µM and > 100 µM
SF-268 CNS
  GI50: 16.6 µM
  TGI: 25 µM and > 100 µM
SF-295 CNS
  GI50: 21.8 µM
  TGI: 25 µM and > 100 µM
SF-539 CNS
  GI50: 37.1 µM
  TGI: 25 µM and > 100 µM
SK-MEL-2 melanoma
  TGI: > 100 µM
SK-MEL-28 melanoma
  GI50: 35.3 µM
  TGI: > 100 µM
SK-MEL-5 melanoma
  GI50: 34.2 µM
  TGI: 25 µM and > 100 µM
SK-OV-3 ovarian
  GI50: 64.8 µM
  TGI: > 100 µM
SN12C renal
  GI50: 25.9 µM
  TGI: 25 µM and > 100 µM
SNB-19 CNS
  GI50: 59.9 µM
  TGI: 25 µM and > 100 µM
SNB-75 CNS
  GI50: 27.9 µM
  TGI: 25 µM and > 100 µM
SR leukemia
  GI50: 3.37 µM
  TGI: 25 µM and 15.4 µM
SW-620 colon
  GI50: 8.09 µM
  TGI: 25 µM and > 100 µM
T-47D breast
  GI50: 6.88 µM
  TGI: 25 µM and > 100 µM
TK-10 renal
  GI50: > 100 µM
  TGI: > 100 µM
U251 CNS
  GI50: 31.8 µM
  TGI: 25 µM and > 100 µM
UACC-257 melanoma
  GI50: 2.57 µM
  TGI: 25 µM and > 100 µM
UACC-62 melanoma
  GI50: 27.5 µM
  TGI: 25 µM and > 100 µM
UO-31 renal
  TGI: > 100 µM
